Results taken from ChEMBL document CHEMBL1136622, “Discovery of the first antibacterial small molecule inhibitors of MurB” (Bioorg Med Chem Lett, 2003).
≈ marks a conversion by molar mass, not a printed value.

Key:
[1] = In vitro inhibitory concentration required against Mur B enzyme was determined; design: species or system Staphylococcus aureus
[2] = test system: Staphylococcus aureus; assay: Antibacterial activity against Staphylococcus aureus A9537; type: functional

Row | IC50 [1] | MIC [2] | Structure (SMILES)
1 | > 118 µM |  | CCCC[C@@H](C(=O)O)n1c(-c2cccc(Oc3ccc(C(C)(C)C)cc3)c2)cnc1O
2 | 12 µM |  | CCCC[C@@H](C(=O)O)N1C(=O)C(CC(=O)NCCc2ccccc2Cl)SC1c1cccc(Oc2ccc(C(C)(C)C)cc2)c1 (some centres not stated)
3 | 40 µM | 4 µg/mL (≈ 8.65 µM) | C=CCn1cc(-c2cccc(Oc3ccc(C(C)(C)C)cc3)c2)n([C@@H](CCCC)C(=O)O)c1=O
4 | > 115 µM |  | CCCC[C@@H](C(=O)O)n1c(-c2cccc(Oc3ccc(C(C)(C)C)cc3)c2)cn(C)c1=O
5 | 16 µM | 2 µg/mL (≈ 3.9 µM) | CCCC[C@@H](C(=O)O)n1c(-c2cccc(Oc3ccc(C(C)(C)C)cc3)c2)cn(Cc2ccccc2)c1=O
6 | > 101 µM |  | CCCC[C@@H](C(=O)OC)n1c(-c2cccc(Oc3ccc(C(C)(C)C)cc3)c2)cn(CC(=O)O)c1=O
7 | 25 µM | 4 µg/mL (≈ 6.47 µM) | CCCC[C@@H](C(=O)O)n1c(-c2cccc(Oc3ccc(C(C)(C)C)cc3)c2)cn(CC(=O)NCCc2ccccc2Cl)c1=O
8 | 15 µM | 4 µg/mL (≈ 6.26 µM) | CCCC[C@@H](C(=O)O)n1c(-c2cccc(Oc3ccc(C(C)(C)C)cc3)c2)cn(CC(=O)NCc2ccc(Cl)c(Cl)c2)c1=O
